Measured values: PubChem BioAssay AID256 (DTP/NCI, 2004)
Where “and” joins values, the source holds several entries; their conditions need not be identical. Equal entries are not always repeated. Toxic doses and inconclusive results are not listed. Rule for the calls: active = survival T/C of 150% or more; inactive = T/C below 125% in these data.

Tested on: CD2F1 mice, L1210 leukemia ip, survival T/C
Test: NCI In Vivo Anticancer Drug Screen. Data for tumor model L1210 Leukemia (intraperitoneal) in CD2F1 (CDF1) mice
Settings: endpoint: mean survival time, higher = longer survival
Method in brief: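 Mice carrying a transplanted tumor received test compound or vehicle alone. The value is the measurement in the treated group divided by that in the vehicle-treated control group.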

[1] = dose: 100.0 mg/kg/injection, schedule: Q01DX009 (ip), vehicle: saline with Tween-80
[2] = dose: 200.0 mg/kg/injection, schedule: Q01DX009 (ip), vehicle: saline with Tween-80
[3] = dose: 400.0 mg/kg/injection, schedule: Q01DX009 (ip), vehicle: saline with Tween-80
[4] = dose: 100.0 mg/kg/injection, schedule: Q04DX003 (ip), vehicle: saline with Tween-80
[5] = dose: 200.0 mg/kg/injection, schedule: Q04DX003 (ip), vehicle: saline with Tween-80
[6] = dose: 400.0 mg/kg/injection, schedule: Q04DX003 (ip), vehicle: saline with Tween-80
[7] = dose: 50.0 mg/kg/injection, schedule: Q01DX009 (ip), vehicle: saline with Tween-80
[8] = dose: 12.5 mg/kg/injection, schedule: Q01DX009 (ip), vehicle: other
[9] = dose: 25.0 mg/kg/injection, schedule: Q01DX009 (ip), vehicle: other
[10] = dose: 50.0 mg/kg/injection, schedule: Q01DX009 (ip), vehicle: other
[11] = dose: 100.0 mg/kg/injection, schedule: Q01DX009 (ip), vehicle: other
[12] = dose: 200.0 mg/kg/injection, schedule: Q01DX009 (ip), vehicle: other
[13] = dose: 100.0 mg/kg/injection, schedule: Q04DX002 (ip), vehicle: saline with Tween-80
[14] = dose: 400.0 mg/kg/injection, schedule: Q04DX002 (ip), vehicle: saline with Tween-80
[15] = dose: 200.0 mg/kg/injection, schedule: Q04DX002 (ip), vehicle: saline with Tween-80
[16] = dose: 50.0 mg/kg/injection, schedule: Q04DX002 (ip), vehicle: saline with Tween-80

Measured: T/C

Cc1ccc(S(=O)(=O)/N=S(/C)CC/S(C)=N/S(=O)(=O)c2ccc(C)cc2)cc1 (centres undefined)
inactive: dose: 100.0 mg/kg/injection, schedule: Q01DX001 (ip), vehicle: Klucel (hydroxypropylcellulose) (HPC) 97 % of control | dose: 200.0 mg/kg/injection, schedule: Q01DX001 (ip), vehicle: Klucel (hydroxypropylcellulose) (HPC) 102 % of control | dose: 400.0 mg/kg/injection, schedule: Q01DX001 (ip), vehicle: Klucel (hydroxypropylcellulose) (HPC) 100 % of control

O=[N+]([O-])c1ccc2nc3c(nc2c1)-c1cccc2cccc-3c12
inactive: [1] 98 % of control | [2] 98 % of control | [3] 98 % of control

CC(C)(C)C(=O)CC(=O)C(C)(C)C.CC(C)(C)C(=O)CC(=O)C(C)(C)C.CC(C)(C)C(=O)CC(=O)C(C)(C)C.[La]
inactive: [4] 94 % of control | [5] 101 % of control | [6] 97 % of control

CN(C1=CC(=O)C(=O)c2ccccc21)c1ccccc1
inactive: dose: 75.0 mg/kg/injection, schedule: Q01DX001 (ip), vehicle: saline 97 % of control | dose: 150.0 mg/kg/injection, schedule: Q01DX001 (ip), vehicle: saline 95 % of control | dose: 300.0 mg/kg/injection, schedule: Q01DX001 (ip), vehicle: saline 100 % of control

COc1ccc(NC(=O)Oc2ccc(NC(C)=O)cc2)c(Cl)c1
inactive: dose: 50.0 mg/kg/injection, schedule: Q01DX009 (ip), vehicle: Klucel (hydroxypropylcellulose) (HPC) 100 % of control | dose: 100.0 mg/kg/injection, schedule: Q01DX009 (ip), vehicle: Klucel (hydroxypropylcellulose) (HPC) 100 % of control | dose: 200.0 mg/kg/injection, schedule: Q01DX009 (ip), vehicle: Klucel (hydroxypropylcellulose) (HPC) 107 % of control

CCCCCCCCCNP(=O)(OCc1ccccc1)N(CCCl)CCCl (centres undefined)
inactive: dose: 25.0 mg/kg/injection, schedule: Q01DX001 (ip), vehicle: DMSO 94 % of control | dose: 50.0 mg/kg/injection, schedule: Q01DX001 (ip), vehicle: DMSO 94 % of control | dose: 100.0 mg/kg/injection, schedule: Q01DX001 (ip), vehicle: DMSO 95 % of control | dose: 200.0 mg/kg/injection, schedule: Q01DX001 (ip), vehicle: DMSO 94 % of control | dose: 400.0 mg/kg/injection, schedule: Q01DX001 (ip), vehicle: DMSO 91 % of control

O=[N+]([O-])c1ccc(S(=O)(=O)Cl)c(Cl)c1
inactive: dose: 18.8 mg/kg/injection, schedule: Q01DX009 (ip), vehicle: saline with Tween-80 91 % of control | dose: 37.5 mg/kg/injection, schedule: Q01DX009 (ip), vehicle: saline with Tween-80 100 % of control | dose: 75.0 mg/kg/injection, schedule: Q01DX009 (ip), vehicle: saline with Tween-80 95 % of control | dose: 100.0 mg/kg/injection, schedule: Q04DX003 (ip), vehicle: saline 98 % of control | dose: 200.0 mg/kg/injection, schedule: Q04DX003 (ip), vehicle: saline 89 % of control | dose: 400.0 mg/kg/injection, schedule: Q04DX003 (ip), vehicle: saline 86 % of control

CCN(CC)CCC(=O)c1ccccc1
inactive: dose: 3.12 mg/kg/injection, schedule: Q01DX009 (ip), vehicle: saline with Tween-80 100 % of control | dose: 3.12 mg/kg/injection, schedule: Q01DX009 (ip), vehicle: suspension in saline 96 % of control | dose: 6.25 mg/kg/injection, schedule: Q01DX009 (ip), vehicle: saline with Tween-80 103 % of control | dose: 6.25 mg/kg/injection, schedule: Q01DX009 (ip), vehicle: suspension in saline 95 % of control | dose: 12.5 mg/kg/injection, schedule: Q01DX009 (ip), vehicle: saline with Tween-80 102 % of control | dose: 12.5 mg/kg/injection, schedule: Q01DX009 (ip), vehicle: saline 90 % of control | dose: 12.5 mg/kg/injection, schedule: Q01DX009 (ip), vehicle: suspension in saline 96 % of control | dose: 25.0 mg/kg/injection, schedule: Q01DX009 (ip), vehicle: saline with Tween-80 103 % of control | dose: 25.0 mg/kg/injection, schedule: Q01DX009 (ip), vehicle: saline 94 % of control | dose: 25.0 mg/kg/injection, schedule: Q01DX009 (ip), vehicle: suspension in saline 106 % of control | [7] 101 % of control | dose: 50.0 mg/kg/injection, schedule: Q01DX009 (ip), vehicle: saline 92 % of control | dose: 50.0 mg/kg/injection, schedule: Q01DX009 (ip), vehicle: suspension in saline 106 % of control | [1] 93 % of control

CCCCCCCCCCCC[N+]1(C)CCC[N+](C)(CCCCCCCCCCCC)CC1 (centres undefined)
inactive: dose: 18.7 mg/kg/injection, schedule: Q01DX001 (ip), vehicle: saline with Tween-80 116 % of control | dose: 37.5 mg/kg/injection, schedule: Q01DX001 (ip), vehicle: saline with Tween-80 98 % of control | dose: 75.0 mg/kg/injection, schedule: Q01DX001 (ip), vehicle: saline with Tween-80 113 % of control and 101 % of control

CCOC(=O)/C=C(\C)Nc1cccc(NC(C)=O)c1
inactive: [8] 97 % of control | [9] 91 % of control | [10] 91 % of control | [11] 100 % of control | [12] 91 % of control

NC(=O)OCCc1c2ccccc2nc2ccccc12
inactive: dose: 25.0 mg/kg/injection, schedule: Q04DX002 (ip), vehicle: other 96 % of control | dose: 50.0 mg/kg/injection, schedule: Q04DX002 (ip), vehicle: other 93 % of control | dose: 100.0 mg/kg/injection, schedule: Q04DX002 (ip), vehicle: other 93 % of control | [13] 105 % of control | [14] 105 % of control

CCOC(=O)c1ccc(NC(=O)N(C)C2CCCCC2)cc1
inactive: [7] 95 % of control and 102 % of control | [1] 100 % of control and 104 % of control | [13] 91 % of control and 92 % of control | [4] 92 % of control | [2] 100 % of control and 104 % of control | [15] 92 % of control and 109 % of control | [5] 96 % of control | [14] 102 % of control | [6] 91 % of control

CC1(C)/C(=N/Nc2ccc([N+](=O)[O-])cc2[N+](=O)[O-])CCc2ccccc21
inactive: [8] 94 % of control | [9] 97 % of control | [10] 90 % of control | [11] 94 % of control | [12] 90 % of control

CC1(C)N=C(N)N=C(N)N1c1ccccc1Cl
inactive: dose: 25.0 mg/kg/injection, schedule: Q04DX002 (ip), vehicle: saline 103 % of control | dose: 50.0 mg/kg/injection, schedule: Q04DX002 (ip), vehicle: saline 100 % of control

O=C(Nc1c(Cl)cccc1Cl)OCCOc1ccc(Br)cc1
inactive: [7] 100 % of control | [1] 103 % of control | [2] 107 % of control

C1CC2(CCC13CS3)CS2 (centres undefined)
inactive: [16] 98 % of control | [13] 98 % of control | [15] 95 % of control

O=[N+]([O-])c1ccc2c([N+](=O)[O-])ccc3c2c1CC3
inactive: [4] 100 % of control | [5] 109 % of control | [6] 97 % of control

CC(=O)OCc1c(Cl)ccc(Cl)c1Cl
inactive: [1] 98 % of control | dose: 100.0 mg/kg/injection, schedule: Q04DX003 (ip), vehicle: saline sonified 107 % of control | [2] 100 % of control | dose: 200.0 mg/kg/injection, schedule: Q04DX003 (ip), vehicle: saline sonified 96 % of control | [3] 100 % of control | dose: 400.0 mg/kg/injection, schedule: Q04DX003 (ip), vehicle: saline sonified 96 % of control

Nc1ncnc2c1ncn2C1OC(CO)C(=C(Br)Br)C1O (centres undefined)
inactive: dose: 6.25 mg/kg/injection, schedule: Q01DX005 (ip), vehicle: distilled water + Tween-80 103 % of control | dose: 12.5 mg/kg/injection, schedule: Q01DX005 (ip), vehicle: distilled water + Tween-80 100 % of control | dose: 25.0 mg/kg/injection, schedule: Q01DX005 (ip), vehicle: distilled water + Tween-80 97 % of control | dose: 50.0 mg/kg/injection, schedule: Q01DX005 (ip), vehicle: distilled water + Tween-80 101 % of control | dose: 100.0 mg/kg/injection, schedule: Q01DX005 (ip), vehicle: distilled water + Tween-80 100 % of control

CCCCNS(=O)(=O)c1ccccc1
inactive: [4] 97 % of control | [5] 96 % of control

CC1=C(NNS(=O)(=O)c2ccc(C)cc2)CCCC1=O
inactive: dose: 25.0 mg/kg/injection, schedule: Q04DX002 (ip), vehicle: saline with Tween-80 94 % of control | [16] 97 % of control | [13] 91 % of control and 96 % of control
